IC50 data for 25 compounds are collected here from US8541588B2, “Sulfonamide derivatives” (Pfizer Limited, priority 2009, dated 2013).

For the first experiment, the target named is T1, Nav1.7 (or SCN9A) channel; HEK cells stably transfected with hSCN9A (Homo sapiens, UniProt Q15858).
T1 construct: expressed in transfected cells
T1 sequence (Q15858 whole entry): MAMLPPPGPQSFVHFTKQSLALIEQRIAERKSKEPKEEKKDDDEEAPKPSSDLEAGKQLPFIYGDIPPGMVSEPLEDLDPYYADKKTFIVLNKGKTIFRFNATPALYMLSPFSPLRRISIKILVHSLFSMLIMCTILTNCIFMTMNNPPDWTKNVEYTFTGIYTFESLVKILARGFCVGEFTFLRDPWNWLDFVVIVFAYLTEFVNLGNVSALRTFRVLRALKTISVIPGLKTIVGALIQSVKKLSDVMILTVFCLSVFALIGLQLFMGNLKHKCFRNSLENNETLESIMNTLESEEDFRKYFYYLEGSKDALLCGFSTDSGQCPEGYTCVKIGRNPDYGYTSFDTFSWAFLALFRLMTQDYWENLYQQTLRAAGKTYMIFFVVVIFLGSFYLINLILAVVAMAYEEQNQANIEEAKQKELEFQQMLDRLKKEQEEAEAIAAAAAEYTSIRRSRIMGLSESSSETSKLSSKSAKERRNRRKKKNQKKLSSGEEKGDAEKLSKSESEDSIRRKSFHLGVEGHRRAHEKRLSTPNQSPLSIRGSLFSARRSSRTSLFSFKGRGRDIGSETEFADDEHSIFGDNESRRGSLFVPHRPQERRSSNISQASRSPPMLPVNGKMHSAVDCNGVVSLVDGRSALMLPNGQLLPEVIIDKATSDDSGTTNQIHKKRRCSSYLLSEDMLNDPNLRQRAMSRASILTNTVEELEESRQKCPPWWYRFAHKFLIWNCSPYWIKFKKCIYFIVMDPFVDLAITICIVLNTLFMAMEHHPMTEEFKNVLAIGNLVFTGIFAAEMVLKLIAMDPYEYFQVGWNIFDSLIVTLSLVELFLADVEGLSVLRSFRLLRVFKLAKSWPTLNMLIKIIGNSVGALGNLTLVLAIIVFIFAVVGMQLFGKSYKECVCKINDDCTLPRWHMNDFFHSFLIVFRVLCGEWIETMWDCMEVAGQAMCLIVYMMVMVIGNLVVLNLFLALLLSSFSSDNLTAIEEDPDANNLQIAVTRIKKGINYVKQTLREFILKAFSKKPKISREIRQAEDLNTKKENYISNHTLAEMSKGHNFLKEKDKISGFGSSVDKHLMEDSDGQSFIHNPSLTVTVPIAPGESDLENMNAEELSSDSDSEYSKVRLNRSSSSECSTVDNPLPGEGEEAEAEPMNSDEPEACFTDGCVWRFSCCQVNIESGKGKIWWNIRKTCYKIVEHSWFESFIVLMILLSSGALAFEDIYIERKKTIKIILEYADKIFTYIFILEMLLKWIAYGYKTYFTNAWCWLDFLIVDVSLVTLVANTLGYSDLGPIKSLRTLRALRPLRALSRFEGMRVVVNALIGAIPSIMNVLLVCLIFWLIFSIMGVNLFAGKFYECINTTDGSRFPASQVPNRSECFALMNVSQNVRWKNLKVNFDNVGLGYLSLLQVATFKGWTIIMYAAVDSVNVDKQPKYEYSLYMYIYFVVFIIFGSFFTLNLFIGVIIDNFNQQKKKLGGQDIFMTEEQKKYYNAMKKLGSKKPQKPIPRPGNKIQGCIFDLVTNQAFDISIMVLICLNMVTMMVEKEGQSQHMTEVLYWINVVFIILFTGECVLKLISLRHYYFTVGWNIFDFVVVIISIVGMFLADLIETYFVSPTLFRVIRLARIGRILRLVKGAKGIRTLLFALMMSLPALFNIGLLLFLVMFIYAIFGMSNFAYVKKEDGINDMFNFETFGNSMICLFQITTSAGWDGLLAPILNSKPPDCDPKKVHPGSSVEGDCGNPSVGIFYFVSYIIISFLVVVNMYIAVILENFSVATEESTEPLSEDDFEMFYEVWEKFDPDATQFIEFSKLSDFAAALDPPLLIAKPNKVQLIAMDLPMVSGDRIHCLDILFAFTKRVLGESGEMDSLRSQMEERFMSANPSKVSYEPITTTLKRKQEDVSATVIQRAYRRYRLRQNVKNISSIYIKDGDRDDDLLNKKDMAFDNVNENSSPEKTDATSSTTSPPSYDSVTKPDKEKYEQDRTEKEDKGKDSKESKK
Nature of the experiment: Nav1.7 block, PatchXpress 7000 automated whole-cell voltage clamp, estimated IC50 (EIC50). The class given is cell-based. The following applies: PatchXpress platform; hSCN9A HEK cells held at V1/2 of inactivation; estimated IC50.
A word on the IC50: it is the point on the concentration scale where inhibition reaches its midpoint. For `N#Cc1cc(S(=O)(=O)Nc2nccs2)ccc1Oc1cc(-c2ccccc2F)nn1CC(F)(F)F` [Example 188, 3-cyano-4-[5-(2-fluoro-phenyl)-2-(2,2,2-trifluoro-ethyl)-2H-pyrazol-3-yloxy]-N-thiazol-2-yl-benzenesulfonamide], the IC50 was 9420 nM.
For `O=S(=O)(Nc1nccs1)c1ccc(Oc2nc(Cc3ccc(Cl)cc3)cs2)cc1F` [Example 214, 4-[4-(4-chloro-benzyl)-thiazol-2-yloxy]-2-fluoro-N-thiazol-2-yl-benzenesulfonamide], the IC50 was 2410 nM.
Still for that read-out and setting: the figure for `CN(C)c1ncc(Oc2ccc(S(=O)(=O)Nc3ncns3)cc2C#N)c(-c2ccc(F)cc2)n1` [Example 8, 3-cyano-4-{[2-(dimethylamino)-4-(4-fluorophenyl)pyrimidin-5-yl]oxy}-N-1,2,4-thiadiazol-5-ylbenzenesulfonamide] is 450 nM; for `COc1cc(C)ccc1Oc1cccc(F)c1Oc1ccc(S(=O)(=O)Nc2ncns2)cc1C#N` [Example 75, 3-cyano-4-[2-fluoro-6-(2-methoxy-4-methylphenoxy)phenoxy]-N-1,2,4-thiadiazol-5-ylbenzenesulfonamide] it is 3340 nM; for `N#Cc1cc(S(=O)(=O)Nc2ccnc(C(F)(F)F)n2)ccc1Oc1ccccc1-c1ccccc1` [Example 116, 4-(biphenyl-2-yloxy)-3-cyano-N-[2-(trifluoromethyl)pyrimidin-4-yl]benzenesulfonamide] it is 3110 nM.
Consider `Cc1ccc(Oc2ccc(S(=O)(=O)Nc3nccs3)cc2F)c(-c2[nH]ncc2C)c1` [Example 224, 3-fluoro-4-(4-methyl-2-(4-methyl-1H-pyrazol-5-yl)phenoxy)-N-(thiazol-2-yl)benzenesulfonamide], for which the half-inhibitory concentration (IC50) is 770 nM.
Same read-out and setting: for `N#Cc1cc(S(=O)(=O)Nc2ncns2)ccc1Oc1ccccc1Oc1ccncc1` [Example 63, 3-cyano-4-[2-(pyridin-4-yloxy)phenoxy]-N-1,2,4-thiadiazol-5-ylbenzenesulfonamide] the value was 2350 nM.
As for `O=S(=O)(Nc1nccs1)c1ccc(Oc2ccccc2-c2ccccc2)c(F)c1` [Example 242, 4-(biphenyl-2-yloxy)-3-fluoro-N-thiazol-2-yl-benzenesulfonamide], the concentration for half-maximal inhibition (IC50) was 120 nM.

The experiment is the same for the next values; noted with them: estimated IC50; hSCN9A HEK cells, PatchXpress platform; Examples 283-814.
`Cn1nccc1-c1cc(F)ccc1Oc1cc(F)c(S(=O)(=O)Nc2ccncn2)cc1Cl` [Example 295, 5-chloro-2-fluoro-4-[4-fluoro-2-(1-methyl-1H-pyrazol-5-yl)phenoxy]-N-pyrimidin-4-ylbenzenesulfonamide]: the IC50 is 130 nM.
As to `O=S(=O)(Nc1ncns1)c1ccc(Oc2ccc(Cl)cc2-c2cn[nH]c2)c(F)c1` [Example 737, 4-[4-chloro-2-(1H-pyrazol-4-yl)phenoxy]-3-fluoro-N-1,2,4-thiadiazol-5-ylbenzenesulfonamide], the 50% inhibitory concentration (IC50) is 17 nM.
On the same count and under the same terms, the figure for `N#Cc1cncc(-c2cc(C(F)(F)F)ccc2Oc2ccc(S(=O)(=O)Nc3ncns3)cc2C#N)c1` [Example 284, 3-cyano-4-[2-(5-cyanopyridin-3-yl)-4-(trifluoromethyl)phenoxy]-N-1,2,4-thiadiazol-5-ylbenzenesulfonamide] is 1600 nM.
Regarding `Cn1nncc1-c1cc(F)ccc1Oc1cc(F)c(S(=O)(=O)Nc2cscn2)cc1Cl` [Example 523, 5-chloro-2-fluoro-4-[4-fluoro-2-(1-methyl-1H-1,2,3-triazol-5-yl)phenoxy]-N-1,3-thiazol-4-ylbenzenesulfonamide], the IC50 is 2600 nM.
On the same count and under the same terms, for `Cn1nccc1-c1cccc(Oc2ccc(S(=O)(=O)Nc3nccs3)cc2C#N)c1` [Example 445, 3-cyano-4-[3-(1-methyl-1H-pyrazol-5-yl)phenoxy]-N-1,3-thiazol-2-ylbenzenesulfonamide] the value was over 1000 nM.
Same read-out and setting: the figure for `Cc1nsc(NS(=O)(=O)c2cc(Cl)c(Oc3ccc(Cl)cc3-c3ccnn3C)cc2F)n1` [Example 294, 5-chloro-4-[4-chloro-2-(1-methyl-1H-pyrazol-5-yl)phenoxy]-2-fluoro-N-(3-methyl-1,2,4-thiadiazol-5-yl)benzenesulfonamide] is 34 nM; for `N#Cc1cc(S(=O)(=O)Nc2nccs2)ccc1Oc1ccc(Br)cc1-c1cn[nH]c1` [Example 697, 4-[4-Bromo-2-(1H-pyrazol-4-yl)phenoxy]-3-cyano-N-1,3-thiazol-2-ylbenzenesulfonamide] it is 1.4 nM.
Still for that read-out and setting: the figure for `N#Cc1cncc(-c2cc(C(F)(F)F)ccc2Oc2cc(F)c(S(=O)(=O)Nc3ncns3)cc2Cl)c1` [Example 616, 5-chloro-4-[2-(5-cyanopyridin-3-yl)-4-(trifluoromethyl)phenoxy]-2-fluoro-N-1,2,4-thiadiazol-5-ylbenzenesulfonamide] is 280 nM; for `N#Cc1cc(S(=O)(=O)Nc2nccs2)ccc1Oc1cnn(-c2ccc(Cl)cc2Cl)c1` [Example 333, 3-cyano-4-{[1-(2,4-dichlorophenyl)-1H-pyrazol-4-yl]oxy}-N-1,3-thiazol-2-ylbenzenesulfonamide] it is over 1000 nM.

Still in this experiment, the particulars now being: estimated IC50; hSCN9A HEK cells, PatchXpress platform; Examples 815-1040.
As to `N#Cc1ccc(Oc2cc(F)c(S(=O)(=O)Nc3nncs3)cc2Cl)c(-c2ccnnc2)c1` [Example 925, 5-chloro-4-(4-cyano-2-pyridazin-4-ylphenoxy)-2-fluoro-N-1,3,4-thiadiazol-2-ylbenzenesulfonamide], the IC50 was 660 nM.
Consider `Nc1cccc(-c2cc(OC(F)(F)F)ccc2Oc2cc(F)c(S(=O)(=O)Nc3ncns3)cc2F)n1` [Example 830, 4-[2-(6-aminopyridin-2-yl)-4-(trifluoromethoxy)phenoxy]-2,5-difluoro-N-1,2,4-thiadiazol-5-ylbenzenesulfonamide], for which the half-inhibitory concentration (IC50) is 23 nM.
Turning to `Cn1nccc1-c1cc(Cl)ccc1Oc1ccc(S(=O)(=O)Nc2ncccn2)cc1C#N` [Example 881, 4-[4-chloro-2-(1-methyl-1H-pyrazol-5-yl)phenoxy]-3-cyano-N-pyrimidin-2-ylbenzenesulfonamide], the 50% inhibitory concentration (IC50) was 260 nM.
As for `O=S(=O)(Nc1cscn1)c1cc(F)c(Oc2ccc(C(F)(F)F)cc2-c2ccnnc2)cc1F` [Example 954, 2,5-difluoro-4-[2-pyridazin-4-yl-4-(trifluoromethyl)phenoxy]-N-1,3-thiazol-4-ylbenzenesulfonamide], the half-maximal inhibitory concentration (IC50) is 240 nM.
On to `N#Cc1cc(S(=O)(=O)Nc2ncns2)ccc1Oc1ccc(Cl)cc1-c1ccon1` [Example 880, 4-(4-chloro-2-isoxazol-3-ylphenoxy)-3-cyano-N-1,2,4-thiadiazol-5-ylbenzenesulfonamide], for which the concentration for half-maximal inhibition (IC50) is 110 nM.
As for `N#Cc1cc(S(=O)(=O)Nc2ccc(F)cn2)ccc1Oc1ccc(F)cc1C1CC1` [Example 1004, 3-cyano-4-(2-cyclopropyl-4-fluorophenoxy)-N-(5-fluoropyridin-2-yl)benzenesulfonamide], the IC50 is 7100 nM.
`N#Cc1cc(S(=O)(=O)Nc2ncns2)ccc1Oc1ccc(C(F)(F)F)cc1-c1cccc(CN2CCC2)c1` [Example 988, 4-{[3′-(azetidin-1-ylmethyl)-5-(trifluoromethyl)biphenyl-2-yl]oxy}-3-cyano-N-1,2,4-thiadiazol-5-ylbenzenesulfonamide]: the IC50 was 0.7 nM.
Take `N#Cc1cc(S(=O)(=O)Nc2nncs2)ccc1Oc1ccc(Cl)cc1-c1cc(N2CCOCC2)ncn1` [Example 876, 4-[4-chloro-2-(6-morpholin-4-ylpyrimidin-4-yl)phenoxy]-3-cyano-N-1,3,4-thiadiazol-2-ylbenzenesulfonamide]: the IC50 is over 1000 nM.
